Test systems include NCI/ADR-RES ovarian; CCRF-CEM leukemia; PC-3 prostate; RXF 393 renal; SW-620 colon; T-47D breast; NCI-H522 lung; BT-549 breast.
What all share (assay): NCI-60 cell line screen, 48 h

Structures are written as SMILES.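 A five-concentration, 48-hour dose response in 96-well plates underlies each endpoint, interpolated linearly between surrounding concentrations. GI50 marks 50% less growth. Definition used: TGI = concentration required for complete inhibition of growth.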

As to `Cc1cc([C@H](C)Nc2nccc(N3C(=O)OC[C@@H]3[C@H](C)F)n2)ncc1-c1ccnc(C(F)(F)F)c1`, the GI50 in the test on NCI/ADR-RES ovarian was 23.3 µM; with CCRF-CEM leukemia, 38.1 µM; in the test with PC-3 prostate it was 31.3 µM; with RXF 393 renal it was 11.3 µM; in the test with SW-620 colon, 46.6 µM; in the test on T-47D breast it was 16.4 µM. Moreover, the GI50 in the test on NCI-H522 lung is 31.7 µM; in the test with BT-549 breast it was 18.1 µM. For the same compound, the TGI in the test with NCI/ADR-RES ovarian was above 100 µM; in the test with CCRF-CEM leukemia, above 100 µM; in the test with PC-3 prostate, above 100 µM; in the test with RXF 393 renal, 86.4 µM; in the test with SW-620 colon, above 100 µM; with T-47D breast, above 100 µM. In addition, the TGI in the test on NCI-H522 lung was above 100 µM; in the test with BT-549 breast it was 82.6 µM.

As for `NCCNc1nc2ccccc2c2c(=O)c3cc(F)cc(Cl)c3sc12`, the GI50 was 1.81 µM in the test on NCI/ADR-RES ovarian; 1.31 µM in the test on CCRF-CEM leukemia; 1.42 µM in the test with PC-3 prostate; 1.62 µM with RXF 393 renal; 1.54 µM in the test with SW-620 colon; 1.55 µM in the test on T-47D breast. The GI50 is 1.64 µM in the test with NCI-H522 lung and 1.55 µM in the test on BT-549 breast. Besides, the TGI in the test with NCI/ADR-RES ovarian is 3.65 µM; with CCRF-CEM leukemia it was 2.82 µM; in the test on PC-3 prostate, 2.9 µM; in the test on RXF 393 renal, 3.16 µM; in the test with SW-620 colon it was 3.08 µM; in the test on T-47D breast, 3.48 µM. The TGI in the test on NCI-H522 lung turned out to be 3.43 µM; with BT-549 breast it was 2.93 µM.

Turning to `CC(C)c1ccc2c(c1)c(SC(C)(C)C)c(CC(C)(C)C(=O)O)n2Cc1ccc(Cl)cc1`, the GI50 is 10.1 µM in the test with NCI/ADR-RES ovarian; 4.27 µM in the test on CCRF-CEM leukemia; 8.18 µM with PC-3 prostate; 2.87 µM in the test on RXF 393 renal; 12.4 µM with SW-620 colon; 9.86 µM with T-47D breast. The GI50 is 6.07 µM in the test on NCI-H522 lung and 9.79 µM in the test with BT-549 breast. The TGI with NCI/ADR-RES ovarian turned out to be 26.7 µM; with CCRF-CEM leukemia, 29.1 µM; with PC-3 prostate it was 23.4 µM; in the test on RXF 393 renal, 12.4 µM; in the test on SW-620 colon, 29.1 µM; in the test with T-47D breast, 27.3 µM. Further, the TGI amounted to 18.1 µM in the test with NCI-H522 lung and 22.5 µM in the test with BT-549 breast.

`COc1ccc(-c2conc2-c2ccccc2)cc1`: the GI50 with NCI/ADR-RES ovarian is 0.142 µM; in the test with CCRF-CEM leukemia, 0.292 µM; in the test with PC-3 prostate, 0.363 µM; with RXF 393 renal, 0.249 µM; with SW-620 colon, 0.081 µM; in the test on T-47D breast it was 0.329 µM. Moreover, the GI50 in the test with NCI-H522 lung is 0.17 µM; in the test with BT-549 breast, 0.94 µM. In addition, the TGI with NCI/ADR-RES ovarian, in the test with CCRF-CEM leukemia, in the test on PC-3 prostate, with RXF 393 renal, in the test on SW-620 colon and in the test with T-47D breast was above 100 µM throughout. Moreover, the TGI with NCI-H522 lung was determined as 15.9 µM; in the test with BT-549 breast it was 12.8 µM.

Consider `COc1ccc2c(c1)c(-c1cc(-c3cn(C)c4ccc(OC)cc34)[nH]n1)cn2C`, for which the GI50 in the test with NCI/ADR-RES ovarian, with CCRF-CEM leukemia, in the test with PC-3 prostate, in the test on RXF 393 renal, with SW-620 colon and with T-47D breast was above 100 µM each time. In addition, the GI50 with NCI-H522 lung and in the test on BT-549 breast was above 100 µM in each case. In addition, the TGI in the test on NCI/ADR-RES ovarian, with CCRF-CEM leukemia, in the test with PC-3 prostate, in the test with RXF 393 renal, with SW-620 colon and with T-47D breast was above 100 µM in each case. Besides, the TGI in the test on NCI-H522 lung and with BT-549 breast was above 100 µM in each case.

With `NCCn1c2c(c3ccccc3c1=O)C(=O)c1ccccc1-2`, the GI50 with NCI/ADR-RES ovarian is 0.647 µM; with CCRF-CEM leukemia, 0.33 µM; in the test with PC-3 prostate, 1.11 µM; in the test with RXF 393 renal, 1.87 µM; with SW-620 colon it was 0.147 µM; in the test on T-47D breast, 0.308 µM. Moreover, the GI50 was 1.24 µM in the test with NCI-H522 lung and 2.42 µM in the test on BT-549 breast. For the same compound, the TGI in the test with NCI/ADR-RES ovarian worked out at 3.3 µM; with CCRF-CEM leukemia it was 1.74 µM; with PC-3 prostate it was 8.73 µM; in the test on RXF 393 renal, 6.55 µM; in the test on SW-620 colon, 4.32 µM; with T-47D breast, 1.28 µM. The TGI is above 21.7 µM with NCI-H522 lung and 10.1 µM in the test on BT-549 breast.

Take `Cc1nc2cc(Nc3nc(Nc4ccc(F)cc4)nc(-c4ccc(Cl)cc4)n3)ccc2n1Cc1ccccc1`: the GI50 is 5.51 µM in the test with NCI/ADR-RES ovarian; 3.35 µM with CCRF-CEM leukemia; 3.69 µM in the test with PC-3 prostate; 4.21 µM in the test with RXF 393 renal; 7.55 µM in the test on SW-620 colon; 2.44 µM in the test on T-47D breast. For the same compound, the GI50 was 10.8 µM in the test on NCI-H522 lung and 6.14 µM in the test with BT-549 breast. Also, the TGI in the test on NCI/ADR-RES ovarian is 33.8 µM; in the test with CCRF-CEM leukemia, above 100 µM; in the test on PC-3 prostate it was above 100 µM; in the test with RXF 393 renal, 38.5 µM; in the test with SW-620 colon, above 100 µM; in the test with T-47D breast it was 24.8 µM. Moreover, the TGI with NCI-H522 lung was determined as 68.2 µM; with BT-549 breast, 39.8 µM.

As to `Cc1cc2c(-c3nc4ccccn4c3NC34CC5CC(CC(C5)C3)C4)c(O)c(O)cc2c(O)c1-c1c(C)cc2c(-c3nc4ccccn4c3NC34CC5CC(CC(C5)C3)C4)c(O)c(O)cc2c1O`, the GI50 in the test on NCI/ADR-RES ovarian is 1.05 µM; in the test on CCRF-CEM leukemia it was 0.115 µM; with PC-3 prostate it was 0.231 µM; with RXF 393 renal, 0.464 µM; in the test on SW-620 colon, 0.881 µM; in the test with T-47D breast, 0.187 µM. Moreover, the GI50 in the test with NCI-H522 lung is 0.613 µM; in the test with BT-549 breast, 0.105 µM. The TGI is above 25 µM in the test on NCI/ADR-RES ovarian; above 25 µM in the test with CCRF-CEM leukemia; 11.9 µM in the test on PC-3 prostate; 2.63 µM with RXF 393 renal; above 25 µM in the test on SW-620 colon; 2.49 µM with T-47D breast. Also, the TGI was 3.54 µM in the test on NCI-H522 lung and 5.96 µM in the test with BT-549 breast.

Take `COc1ccc(-c2nn3ncccc3c2-c2ccnc(Nc3cccc(C(F)(F)F)c3)n2)cc1`: the GI50 with NCI/ADR-RES ovarian was 6.16 µM; in the test on CCRF-CEM leukemia, 6.73 µM; in the test with PC-3 prostate, 7.25 µM; in the test with RXF 393 renal, 5.76 µM; with SW-620 colon it was 10.8 µM; in the test with T-47D breast, 6.53 µM. Further, the GI50 was 6.39 µM with NCI-H522 lung and 12.4 µM with BT-549 breast. Further, the TGI is above 25 µM with NCI/ADR-RES ovarian; above 25 µM in the test with CCRF-CEM leukemia; above 25 µM with PC-3 prostate; 24.5 µM in the test with RXF 393 renal; above 25 µM in the test with SW-620 colon; above 25 µM in the test on T-47D breast. Besides, the TGI in the test with NCI-H522 lung is above 21.7 µM; in the test on BT-549 breast, above 25 µM.

(Values after PubChem BioAssay (NCI).)
